Source: patent US6683103B2, “Sulfonamides for treatment of endothelin-mediated disorders” (Texas Biotechnology Corporation, priority 1997, dated 2004)
Where two headings read alike, the source gives them in different places. Marks after values point to notes of the source that are not given here.

How the values were obtained:
human ETA receptors = target: T1, human ETA receptors (Homo sapiens, UniProt P25101); experiment: Binding Test #1: inhibition of 125I-ET-1 binding to ETA receptors (TE 671 cell membranes); details: Table 3
T1 construct: endogenous in cells; host or cells: TE 671 cells (ATCC HTB 139)
T1 sequence (P25101 21-427): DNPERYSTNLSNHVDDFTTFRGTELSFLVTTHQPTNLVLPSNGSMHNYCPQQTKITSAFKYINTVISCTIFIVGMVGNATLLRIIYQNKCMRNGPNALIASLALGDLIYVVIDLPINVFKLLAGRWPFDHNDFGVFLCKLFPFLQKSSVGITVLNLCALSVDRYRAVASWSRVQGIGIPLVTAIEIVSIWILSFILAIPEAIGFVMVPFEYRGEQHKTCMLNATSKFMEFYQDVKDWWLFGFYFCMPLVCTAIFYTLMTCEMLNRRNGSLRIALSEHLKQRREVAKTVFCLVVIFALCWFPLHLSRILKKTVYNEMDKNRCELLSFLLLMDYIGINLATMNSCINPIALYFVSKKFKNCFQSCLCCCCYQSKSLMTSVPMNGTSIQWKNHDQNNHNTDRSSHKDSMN
Summary of the method: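 Membranes from TE 671 cells (up to 8 μg protein) incubated with ¹²⁵I-ET-1 and compound (1 nM–100 μM final) in 30 mM HEPES pH 7.4, 150 mM NaCl, 5 mM MgCl2, 0.5% bacitracin, 16–18 h at 4 °C or alternatively at 24 °C. Nonspecific binding with 80 nM ET-1; bound pellet gamma-counted, % inhibition calculated, usually triplicate.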

Papp (Table 4) = assay type: in vitro ADME
[1] = Oral half-life and peak plasma levels in rat; assay type: in vivo
Text: As used herein, bioavailability refers to the rate and extent of absorption. Methods for determining bioavailability are well known to those of skill in the art. For example, bioavailability of any of the compounds described herein can be determined empirically by administration of the compound to an animal, followed by taking blood samples over time and measuring the blood concentration of the compound. In vivo half life (t½) is defined as the time it takes for the concentration of the compound in the blood to be reduced by one-half. Estimations of the area under the curve for intravenous administration can be used to estimate the area under the curve for oral administration, yielding bioavailability data. See, e.q., Milo Gibal (1991) Biopharmaceutics and Pharmacology, 4th edition (Lea and Sediger).
Table 4 lists oral half-life, bioavailability, and in vivo activity of selected exemplary compounds. The in vivo activity was measured in a pulmonary hypertension model and is a measure of the activity of the compounds at selected dosages.

[2] = system: Pulmonary Hypertension model; experiment: Pulmonary hypertension model, in vivo efficacy; design: species or system rat; key to in vivo Efficacy: ++ effective at 5 mg/kg; − no effect at 5 mg/kg; + effective at 15 mg/kg
Description: As used herein, efficacy refers to the maximal effect that can be produced by a compound. Efficacy can be determined by methods known to those of skill in the art. For example, it can be determined by the properties of the compound and its receptor-effector system and is reflected in the plateau of the concentration-effect curve. In vivo efficacy refers to efficacy which is determined in an animal model. For example, in vivo efficacy of the compounds described herein can be determined by amelioration of hypoxia-induced pulmonary hypertension in rat. In this context, in vivo efficacy refers to the ability of a compound to restore an elevated pulmonary artery pressure to a normal value. […] J. Physiol. […] The in vivo activity was measured in a pulmonary hypertension model and is a measure of the activity of the compounds at selected dosages.

[3] = Stability of solutions, percent remaining by HPLC; assay type: physicochemical
[4] = Solubility in aqueous media
ETA receptor = details: cited from earlier work
ETB receptors = details: tissues in which ETB receptors predominate; cited from earlier work
isolated vascular strips = details: contractile agent in isolated vascular strips; cited from earlier work

CC(=O)c1cc(C)cc(C)c1NC(=O)c1sccc1S(=O)(=O)Nc1onc(C)c1Cl [N-(2-acetyl-4,6-dimethylphenyl)-3-(((4-chloro-3-methyl-5-isoxazolyl)amino)sulfonyl)-2-thiophenecarboxamide]
ETA/ETB selectivity (human ETA receptors): 34000^∥
IC50 (human ETA receptors; † incubation at 24° C., read-out: ETA): 0.55 nM
Papp (cell printed as %) (Papp (Table 4)): 40%
Peak Plasma Levels ([1]; in vivo): 57 µg/mL
POt½ in Rat ([1]; oral): 8.6 h
in vivo Efficacy (footnote e) ([2]; 0.3 mg/kg in vivo): ^eeffective at 0.3 mg/kg in vivo
in vivo Efficacy ([2]; Pulmonary Hypertension model): ++^e

Cc1cc2c(cc1CC(=O)c1sccc1S(=O)(=O)Nc1onc(C)c1Cl)OCO2.[Na] [sodium]
percent remaining (HPLC) ([3]; 0.49 mg/mL, 1.5% PVP + 3.0% PG, 24 h): 90.0%
percent remaining (HPLC) ([3]; 0.51 mg/mL, 5% dextrose, 24 h): 99.4%
percent remaining (HPLC) ([3]; 0.51 mg/mL, normal saline, 24 h): 96.9%
percent remaining (HPLC) ([3]; 0.57 mg/mL, 0.75% PVP + 1.5% PG, 24 h): 74.4%
percent remaining (HPLC) ([3]; 20 mg/mL, 5% dextrose + 5% PG + citrate buffer, 0.3% w/v (pH 7.5), 26 h (4° C.)): 97.2%
percent remaining (HPLC) ([3]; 20 mg/mL, 5% dextrose + 5% buffer (pH 7.0), 24 h): 92.6%
percent remaining (HPLC) ([3]; 20 mg/mL, 5% dextrose + K-phosphate buffer, 2.5% w/v (pH 6), 24 h): 84.6%
percent remaining (HPLC) ([3]; 20 mg/mL, 5% dextrose + K-phosphate buffer, 2.5% w/v (pH 7), 20 h): 92.6%
percent remaining (HPLC) ([3]; 20 mg/mL, 5% dextrose + K-phosphate buffer, 2.5% w/v (pH 7.5), 24 h): 93.4%
percent remaining (HPLC) ([3]; 20 mg/mL, 5% dextrose + citrate buffer, 0.3% w/v (pH 7.5), 27 h (4° C.)): 96.6%
percent remaining (HPLC) ([3]; 20 mg/mL, 5% dextrose + citrate buffer, 0.3% w/v (pH 8), 21 h): 92.9%
percent remaining (HPLC) ([3]; 20 mg/mL, 5% dextrose, 24 h (13° C.)): 93.7%
percent remaining (HPLC) ([3]; 20 mg/mL, 5% dextrose, 25 h (10° C.)): 93.7%
percent remaining (HPLC) ([3]; 20 mg/mL, 10% dextrose + 10% PG + Na-phosphate buffer, 0.3% w/v (pH 7.5), 24 h): 90.7%
percent remaining (HPLC) ([3]; 20 mg/mL, 10% dextrose, 24 h): 93.4%
percent remaining (HPLC) ([3]; 30 mg/mL, 5% dextrose, 24 h): 92.2%
percent remaining (HPLC) ([3]; 30 mg/mL, 10% dextrose + 10% PG + citrate buffer, 0.3% w/v (pH 7.5), 24 h (4° C.)): 98.0%
percent remaining (HPLC) ([3]; 30 mg/mL, 20% sorbitol, 24 h): 93.2%
percent remaining (HPLC) ([3]; 100 mg/mL, 5% dextrose, 6 h): 93.0%
percent remaining (HPLC) ([3]; 100 mg/mL, 10% dextrose +10% PG + citrate buffer, 0.3% w/v (pH 7.5), 24 h): 94.2%
percent remaining (HPLC) ([3]; 100 mg/mL, 30% sorbitol, 24 h): 93.2%
stability compared to the sodium hydrogen phosphate salt ([3]; certain aqueous formulations): as stable as the sodium hydrogen phosphate salt
percent remaining (HPLC) ([3]; mg/mL not given, 10% dextrose + 10% PG + Na-phosphate buffer, 0.3% w/v (pH 7.5), 24 h (4° C.)): 97.4%
percent remaining (HPLC) ([3]; mg/mL not given, 10% dextrose + 10% PG + Na-phosphate buffer, 0.3% w/v (pH 8), 24 h (4° C.)): 96.4%
percent remaining (HPLC) ([3]; mg/mL not given, 10% dextrose + 10% PG + citrate buffer, 0.3% w/v (pH 7.4), 24 h (4° C.)): 97.6%
percent remaining (HPLC) ([3]; mg/mL not given, 10% dextrose + 10% PG, 24 h (4° C.)): 97.6%
solubility compared to the neutral compound [4]: improved solubility over the neutral compound

cyclo(D-Glu-L-Ala-allo-D-lle-L-Leu-D-Trp) [BE-18257B]
IC50 (ETA receptor; aortic smooth muscle): 1400 nM
IC50 (ETA receptor; cultured aortic smooth muscle cells): 500 nM
IC50 (ETA receptor; ventricle membranes): 800 nM
concentration up to which binding is not inhibited (ETB receptors): > 100 µM

endothelin-1: potent twenty-one amino acid peptide vasoconstrictor
EC50 (isolated vascular strips): 0.4 nM
